In ChEMBL document CHEMBL4406848, “Novel water soluble BODIPY compounds: Synthesis, photochemical, DNA interaction, topoisomerases inhibition and photodynamic activity properties” (Eur J Med Chem, 2019) one finds Activity and inhibition data, which are given here for two molecules.

One assay concerns HCT-116. The assay can be described thus: Induction of apoptosis in human HCT116 cells assessed as necrotic cells at 50 uM incubated for 24 hrs in presence of irradiation by annexin V FITC and propidium iodide based flow cytometry (reference value: 0.2 %). It is filed as functional. Background: Flow cytometry measures light scatter and fluorescence of single cells or particles in a stream.

The target in assay [1] is DNA topoisomerase II (Homo sapiens) (UniProt P11388+Q02880). The assay can be described thus: Inhibition of recombinant human topoisomerase 2 assessed as supercoiled DNA at 12.5 uM incubated for 1 hr by ethidium bromide staining based agarose gel electrophoresis method relative to control. The class given is protein assay. On the set-up: scale not given: the % may be the effect or the level left.

Assay [2] addresses T1, DNA topoisomerase 1 (Homo sapiens) (UniProt P11387).
T1 sequence (whole entry): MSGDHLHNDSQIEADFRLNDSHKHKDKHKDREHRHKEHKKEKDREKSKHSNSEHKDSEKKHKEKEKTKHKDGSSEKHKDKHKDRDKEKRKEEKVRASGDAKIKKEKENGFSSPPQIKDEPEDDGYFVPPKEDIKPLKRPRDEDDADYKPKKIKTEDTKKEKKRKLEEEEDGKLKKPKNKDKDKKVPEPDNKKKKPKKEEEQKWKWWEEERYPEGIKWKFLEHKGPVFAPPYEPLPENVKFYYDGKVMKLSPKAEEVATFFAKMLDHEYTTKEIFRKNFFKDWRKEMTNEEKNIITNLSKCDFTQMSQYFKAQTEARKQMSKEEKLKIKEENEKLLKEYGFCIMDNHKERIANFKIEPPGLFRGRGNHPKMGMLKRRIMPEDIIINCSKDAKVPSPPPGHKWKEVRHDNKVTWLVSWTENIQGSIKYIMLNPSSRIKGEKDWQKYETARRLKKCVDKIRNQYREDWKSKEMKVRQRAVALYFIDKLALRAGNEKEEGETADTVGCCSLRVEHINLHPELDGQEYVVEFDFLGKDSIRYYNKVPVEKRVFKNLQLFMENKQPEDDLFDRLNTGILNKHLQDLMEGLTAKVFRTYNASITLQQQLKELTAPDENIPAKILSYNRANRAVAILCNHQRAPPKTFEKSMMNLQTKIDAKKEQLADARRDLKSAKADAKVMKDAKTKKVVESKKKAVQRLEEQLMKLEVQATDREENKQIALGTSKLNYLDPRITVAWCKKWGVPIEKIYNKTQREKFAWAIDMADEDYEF
The assay can be described thus: Inhibition of recombinant human topoisomerase 1 assessed as linear DNA at 50 uM incubated for 1 hr by ethidium bromide staining based agarose gel electrophoresis method relative to control.

Consider `CC1=CC(/C=C/c2ccc(OCCCc3ccc[n+](C)c3)c(OCCCc3ccc[n+](C)c3)c2)=[N+]2C1=C(c1ccc(OCCCc3ccc[n+](C)c3)c(OCCCc3ccc[n+](C)c3)c1)c1c(C)cc(/C=C/c3ccc(OCCCc4ccc[n+](C)c4)c(OCCCc4ccc[n+](C)c4)c3)n1[B-]2(F)F.[I-].[I-].[I-].[I-].[I-].[I-]`, for which the Activity was 0.2% in the assay on HCT-116 and 77.5% in assay [1].

For `CC1=CC(/C=C/c2ccc(OCCCc3ccc[n+](C)c3)cc2)=[N+]2C1=C(c1ccc(OCCCc3ccc[n+](C)c3)cc1)c1c(C)cc(/C=C/c3ccc(OCCCc4ccc[n+](C)c4)cc3)n1[B-]2(F)F.[I-].[I-].[I-]`, the inhibition in assay [2] was found to be 100%.

By inhibition is commonly meant the change of the read-out against control, counted positive when it falls.
